The results in this text go back to US9802960B2 (MILLENNIUM PHARMACEUTICALS, INC., priority 2014, dated 2017).

SMILES strings stand for the structures.

For this assay, the target named is Human VPS34 (Homo sapiens (Human), UniProt Q8NEB9). The assay is described as follows: Human VPS34 enzyme assay (Adapta TR-FRET). Type of assay: biochemical. The note with it: compound concentration 1.11 μM; read-out: Percent Inhibition. (In general: TR-FRET usually uses a lanthanide donor and a delayed reading to cut background.)
Sequence of Human VPS34 (Q8NEB9 whole entry): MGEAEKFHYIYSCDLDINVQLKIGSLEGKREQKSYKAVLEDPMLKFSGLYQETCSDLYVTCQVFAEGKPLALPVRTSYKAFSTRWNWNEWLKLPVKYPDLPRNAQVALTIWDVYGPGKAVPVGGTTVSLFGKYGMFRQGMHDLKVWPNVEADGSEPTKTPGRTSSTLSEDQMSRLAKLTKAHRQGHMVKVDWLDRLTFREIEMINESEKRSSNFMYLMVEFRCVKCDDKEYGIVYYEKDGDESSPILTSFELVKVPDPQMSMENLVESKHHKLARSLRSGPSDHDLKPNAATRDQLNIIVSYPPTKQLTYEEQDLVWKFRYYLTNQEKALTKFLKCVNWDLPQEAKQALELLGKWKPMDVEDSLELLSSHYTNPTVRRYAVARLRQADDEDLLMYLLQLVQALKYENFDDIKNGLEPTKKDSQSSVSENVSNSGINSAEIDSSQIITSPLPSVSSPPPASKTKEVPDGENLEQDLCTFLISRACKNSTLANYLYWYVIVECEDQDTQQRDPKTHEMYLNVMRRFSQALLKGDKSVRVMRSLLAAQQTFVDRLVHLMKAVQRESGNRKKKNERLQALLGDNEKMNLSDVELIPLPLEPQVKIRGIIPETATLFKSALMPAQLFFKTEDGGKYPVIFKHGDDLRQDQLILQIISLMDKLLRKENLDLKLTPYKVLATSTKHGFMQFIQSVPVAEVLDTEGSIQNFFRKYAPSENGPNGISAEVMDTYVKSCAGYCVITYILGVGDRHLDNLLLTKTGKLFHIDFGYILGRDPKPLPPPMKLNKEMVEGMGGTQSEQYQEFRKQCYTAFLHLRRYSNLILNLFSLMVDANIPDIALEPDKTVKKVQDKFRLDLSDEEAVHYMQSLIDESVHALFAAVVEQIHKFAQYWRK
In the case of `CC(=O)Nc1cc(-c2cnc(N)c(S(=O)(=O)CCc3ccccc3)c2)ccn1` [Compound I-126, N-{6-amino-5-[(2-phenylethyl)sulfonyl]-3,4′-bipyridin-2′-yl}acetamide], the inhibition at 1.11 µM was above 99%.

Take `COc1ncc(-c2ccnc(NC(C)=O)c2)cc1C(=O)N(C)C` [Compound I-127, 2′-acetamido-6-methoxy-N,N-dimethyl-3,4′-bipyridine-5-carboxamide]: the inhibition at 1.11 µM is above 99%.

On to `CC(=O)Nc1cc(-c2cnc(C)c(NS(=O)(=O)c3ccc(C)cc3Cl)c2)ccn1` [Compound I-128], for which the inhibition at 1.11 µM is above 99%.

On to `CC(=O)Nc1cc(-c2cnc(C)c(NS(=O)(=O)c3ccc(C)cc3F)c2)c(C)cn1` [Compound I-130, N-(5-{[(2-fluoro-4-methylphenyl)sulfonyl]amino}-5′,6-dimethyl-3,4′-bipyridin-2′-yl)acetamide], for which the inhibition at 1.11 µM was above 99%.

For the molecule `CC(=O)Nc1cc(-c2cnc(C)c(NS(=O)(=O)c3ccc(C(C)(C)C)cc3)c2)ccn1` [Compound I-131, N-(5-{[(4-tert-butylphenyl)sulfonyl]amino}-6-methyl-3,4′-bipyridin-2′-yl)acetamide], the inhibition at 1.11 µM was above 99%.

`CNc1ncc(-c2ccnc(NC(C)=O)c2)cc1N1CCCS1(=O)=O` [Compound I-132, N-[5-(1,1-dioxidoisothiazolidin-2-yl)-6-(methylamino)-3,4′-bipyridin-2′-yl]acetamide]: the inhibition at 1.11 µM is above 99%.

In the case of `CC(=O)Nc1cc(-c2cnc(N)c(N(C)S(C)(=O)=O)c2)ccn1` [Compound I-133, N-{6-amino-5-[methyl(methylsulfonyl)amino]-3,4′-bipyridin-2′-yl}acetamide], the inhibition at 1.11 µM is above 99%.

For `CC(=O)Nc1cc(-c2cnc(C)c(NS(=O)(=O)c3ccc(C(C)C)cc3)c2)ccn1` [Compound I-134, N-(5-{[(4-isopropylphenyl)sulfonyl]amino}-6-methyl-3,4′-bipyridin-2′-yl)acetamide], the inhibition at 1.11 µM is above 99%.

As to `CC(=O)Nc1cc(-c2cnc3ncn(CC4CC4)c3c2)ccn1` [Compound I-135, N-{4-[1-(cyclopropylmethyl)-1H-imidazo[4,5-b]pyridin-6-yl]pyridin-2-yl}acetamide], the inhibition at 1.11 µM came to 99%.

On to `CC(=O)Nc1cc(-c2cnc(N)c(C(=O)Nc3ccccc3Cl)c2)ccn1` [Compound I-136, 2′-acetamido-6-amino-N-(2-chlorophenyl)-3,4′-bipyridine-5-carboxamide], for which the inhibition at 1.11 µM is above 99%.

As to `CC(=O)Nc1cc(-c2cncc(S(=O)(=O)N(C)C)c2)ccn1` [Compound I-137, N-[5-(dimethylsulfamoyl)-3,4′-bipyridin-2′-yl]acetamide], the inhibition at 1.11 µM is above 99%.

For the molecule `CC(=O)Nc1cc(-c2cnc(N)c(S(=O)(=O)Cc3ccc(F)cc3F)c2)ccn1` [Compound I-138, N-{6-amino-5-[(2,4-difluorobenzyl)sulfonyl]-3,4′-bipyridin-2′-yl}acetamide], the inhibition at 1.11 µM is above 99%.

For `CC(=O)Nc1cc(-c2cncc(N)c2)ccn1` [Compound I-139, N-(5-amino-3,4′-bipyridin-2′-yl)acetamide], the inhibition at 1.11 µM is 61%.

`CC(=O)Nc1cc(-c2cnc3[nH]ccc3c2)ccn1` [Compound I-140, N-[4-(1H-pyrrolo[2,3-b]pyridin-5-yl)pyridin-2-yl]acetamide]: the inhibition at 1.11 µM is above 99%.

For the molecule `CNc1ncc(-c2ccnc(NC(C)=O)c2)cc1N(CC1CC1)S(C)(=O)=O` [Compound I-141, N-{5-[(cyclopropylmethyl)(methylsulfonyl)amino]-6-(methylamino)-3,4′-bipyridin-2′-yl}acetamide], the inhibition at 1.11 µM is above 99%.

Regarding `COc1cc(C)ccc1S(=O)(=O)Nc1cc(-c2ccnc(NC(C)=O)c2)cnc1C` [Compound I-142, N-(5-{[(2-methoxy-4-methylphenyl)sulfonyl]amino}-6-methyl-3,4′-bipyridin-2′-yl)acetamide], the inhibition at 1.11 µM was above 99%.

Usually inhibition stands for the relative decrease from the control value, in per cent.
